Measurements: patent publication US20250144067A1, “PERSONALIZED STARVATION THERAPY FOR CANCER” (Faeth Therapeutics, Inc., priority 2021, published 2025)

How the values were obtained:
[1] = test system: NCI-H292 lung cancer cells; assay: FDA drug screening, complete media vs cholesterol-free media without statin (TABLE 1); type: cell-based, human
[2] = test system: NCI-H292 lung cancer cells; assay: FDA drug screening, complete media vs cholesterol-free media with simvastatin (TABLE 2); type: cell-based, human; settings: for Cholesterol-free media + simvastatin (0.04 μM) / Complete Media: NCI-H292 cells
[3] = Complete minus Cholesterol-free, >0 enhanced anti-cancer activity, about 0 neutral, <0 antagonist
[4] = NCI-H292 cells, cholesterol-free media without statin
[5] = FDA library drug in cholesterol-free media with simvastatin 0.04 μM
[6] = FDA library drug in complete media
[7] = complete media vs cholesterol-free media + simvastatin (0.04 μM), >0 enhanced anti-cancer activity, about 0 neutral, <0 antagonist
[8] = Complete minus Cholesterol-free, greater than 0 enhanced anti-cancer activity, about 0 neutral, below 0 antagonist
[9] = NCI-H292 cells, FDA drug library screen, cholesterol-free media without statin
[10] = NCI-H292 cells, FDA drug library screen, complete media
[11] = cholesterol-free media with simvastatin 0.04 μM, FDA drug library screen (TABLE 2)
[12] = complete media, FDA drug library screen (TABLE 2)
[13] = complete media minus cholesterol-free media + simvastatin (0.04 μM), >0 enhanced anti-cancer activity, about 0 neutral, <0 antagonist
[14] = complete vs cholesterol-free media, greater than 0 enhanced anti-cancer activity, about 0 neutral, below 0 antagonists
[15] = drug in cholesterol-free media with simvastatin 0.04 μM
[16] = NCI-H292 cells, cholesterol-free media without statin, FDA drug library screen
[17] = NCI-H292 cells, complete media, FDA drug library screen
[18] = FDA drug library screen, cholesterol-free media with simvastatin 0.04 μM
[19] = FDA drug library screen, complete media
[20] = cholesterol-free media with simvastatin 0.04 μM, […]
[21] = complete media minus cholesterol-free media + simvastatin, […]
[22] = Complete minus Cholesterol-free, greater than 0 enhanced anti-cancer activity, about 0 neutral, below 0 antagonists
[23] = NCI-H292 cells in cholesterol-free media without statin
[24] = NCI-H292 cells in complete media
[25] = complete vs cholesterol-free media, >0 enhanced anti-cancer activity, about 0 neutral, <0 antagonist

O=C(CCBr)N1CCN(C(=O)CCBr)CC1 [Pipobroman]
Difference [1, 3]: −0.30
Cholesterol-free [1, 4]: 1.38
Complete ([1]; NCI-H292 cells, complete media): 1.078
Cholesterol-free media + simvastatin (0.04 μM) [2, 5]: 1.384
Complete Media [2, 6]: 1.051
Difference [2, 7]: −0.33

C[C@H](NCc1ccc(OCc2cccc(F)c2)cc1)C(N)=O [Safinamide]
Difference [1, 8]: −0.13
Cholesterol-free [1, 9]: 1.086
Complete [1, 10]: 0.9537
Cholesterol-free media + simvastatin (0.04 μM) [2, 11]: 1.059
Complete Media [2, 12]: 1.012
Difference [2, 13]: −0.05

NC(=O)N1c2ccccc2C=Cc2ccccc21 [Carbamazepine]
Cholesterol-free [1, 4]: 1.302
Complete ([1]; NCI-H292 cells, complete media): 0.9337
Difference [1, 14]: −0.37
Cholesterol-free media + simvastatin (0.04 μM) [2, 15]: 1.226
Complete Media ([2]; drug in complete media): 0.9955
Difference [2, 7]: −0.23

COc1ccccc1O [Guaiacol]
Difference [1, 3]: −0.02
Cholesterol-free [1, 16]: 1.281
Complete [1, 17]: 1.265
Cholesterol-free media + simvastatin (0.04 μM) [2, 5]: 2.295
Complete Media [2, 6]: 1.473
Difference [2, 7]: −0.82

C=CCc1cc(OC)c(O)c(C(=O)NCCO)c1 [Alibendol]
Difference [1, 3]: −0.25
Cholesterol-free [1, 4]: 1.047
Complete ([1]; NCI-H292 cells, complete media): 0.797
Cholesterol-free media + simvastatin (0.04 μM) [2, 18]: 0.9518
Complete Media [2, 19]: 0.8774
Difference [2, 7]: −0.07

Bleomycin (sulfate)
Difference ([1]; Complete minus Cholesterol-free, […]): −0.05
Cholesterol-free [1, 16]: 0.05041
Complete [1, 17]: −0.00442
Cholesterol-free media + simvastatin (0.04 μM) [2, 20]: 0.1778
Complete Media ([2]; complete media, […]): 0.2205
Difference [2, 21]: 0.04

C[C@H](CCC(=O)O)[C@H]1CC[C@H]2[C@@H]3CC[C@@H]4C[C@H](O)CC[C@]4(C)[C@H]3C[C@H](O)[C@]12C [Deoxycholic acid]
Difference [1, 22]: −0.65
Cholesterol-free [1, 23]: 1.683
Complete [1, 24]: 1.028
Cholesterol-free media + simvastatin (0.04 μM) [2, 5]: 1.379
Complete Media [2, 6]: 0.931
Difference [2, 7]: −0.45

CCn1cc(C(=O)O)c(=O)c2cnc(N3CCNCC3)nc21 [Pipemidic acid]
Cholesterol-free [1, 4]: 1.181
Complete ([1]; NCI-H292 cells, complete media): 0.8267
Difference [1, 14]: −0.35
Cholesterol-free media + simvastatin (0.04 μM) [2, 11]: 1.008
Complete Media [2, 12]: 0.9896
Difference [2, 13]: −0.02

NC(=O)c1ncn([C@@H]2O[C@H](CO)[C@@H](O)[C@H]2O)c1O [Mizoribine]
Difference [1, 8]: −0.10
Cholesterol-free [1, 9]: 0.879
Complete [1, 10]: 0.7795
Cholesterol-free media + simvastatin (0.04 μM) [2, 18]: 1.118
Complete Media [2, 19]: 0.9745
Difference [2, 7]: −0.14

Sultamicillin (tosylate)
Cholesterol-free [1, 4]: 1.337
Complete ([1]; NCI-H292 cells, complete media): 1.021
Difference [1, 14]: −0.32
Cholesterol-free media + simvastatin (0.04 μM) ([2]; cholesterol-free media with simvastatin 0.04 μM, cell growth value in FDA drug screen): 1.072
Complete Media ([2]; complete media, cell growth value in FDA drug screen): 1.191
Difference ([2]; complete media minus cholesterol-free media + simvastatin, >0 enhanced anti-cancer activity, about 0 neutral, <0 antagonist): 0.12

Rucaparib (phosphate)
Cholesterol-free [1, 16]: 0.6538
Complete [1, 17]: 0.9448
Difference [1, 25]: 0.29
Complete Media [2, 12]: 1.39
Difference [2, 13]: −0.02

CN(C/C=C/C#CC(C)(C)C)Cc1cccc2ccccc12 [Terbinafine]
Cholesterol-free [1, 16]: 1.229
Complete [1, 17]: 1.421
Difference [1, 25]: 0.19
Cholesterol-free media + simvastatin (0.04 μM) [2, 18]: 1.066
Complete Media [2, 19]: 0.9483
Difference [2, 7]: −0.12

OCC(O)CN1CCN(c2ccccc2)CC1 (centres unmarked) [Dropropizine]
Difference [1, 22]: −0.56
Cholesterol-free [1, 23]: 1.559
Complete [1, 24]: 1
Cholesterol-free media + simvastatin (0.04 μM) [2, 15]: 1.188
Complete Media ([2]; drug in complete media): 0.9581
Difference [2, 7]: −0.23

CCC(=O)O[C@]1(C(=O)SCF)[C@H](C)C[C@H]2[C@@H]3C[C@H](F)C4=CC(=O)C=C[C@]4(C)[C@@]3(F)[C@@H](O)C[C@@]21C [Fluticasone (propionate)]
Difference [1, 22]: −0.60
Cholesterol-free [1, 23]: 1.466
Complete [1, 24]: 0.8611
Cholesterol-free media + simvastatin (0.04 μM) [2, 18]: 0.7423
Complete Media [2, 19]: 0.6072
Difference [2, 7]: −0.14

O=C1C=C2C=C[C@@H]3C[C@@]2(O1)[C@H]1CCCCN31 [(−)-Securinine]
Cholesterol-free [1, 16]: 0.7572
Complete [1, 17]: 0.9271
Difference ([1]; complete vs cholesterol-free media, […]): 0.17
Cholesterol-free media + simvastatin (0.04 μM) [2, 20]: 0.8712
Complete Media ([2]; complete media, […]): 0.9865
Difference [2, 21]: 0.12
